Data reported in patent publication US20040204384A1, “Methods for regulating hematopoietic cell differentiation with polymers containing disaccharide units” (Institut National De La Sante Et De La Recherche Medial …, priority 1999, published 2004).
Several values for one entry are separate records, joined by “and”; a condition that tells them apart may be missing. Equal entries are not always repeated.

How the values were obtained:
Format in all cases: cell-based, human
[1] = system: AML blasts; assay: Nitroblue tetrazolium (NBT) reduction test
Procedure: (§1) AML blast treatment with HA. Cell suspensions containing more than 95% AML blasts were deposited in triplicate at a rate of 2.105 cells per ml of RPMI 1640/10% FCS in tissue culture plates (Costar Corp., Cambridge, Mass.) with 96 wells each containing 150 μl of medium, and placed in incubation for 5 days in the presence of 20 μg/ml of hyaluronic acid (hHA, HA-6 or HA-12). HA was added at the specified concentrations and chondroitin sulphate was added to the negative controls. The plates were placed in an incubator at 37° C. in a humid atmosphere for […], and the cells underwent the differentiation studies as described below.
Nitroblue tetrazolium (NBT) reduction test: The ability to reduce NBT was measured using conventional techniques. Briefly, 2.10^5 cells were suspended in 900 μl of RPMI 1640 medium and were incubated in the presence of 0.2 μg/ml of 12-O-tetradecanoylephorbol-13-acetate (TPA, Sigma) and 0.5 mg/ml of NBT (Sigma) for 30 minutes at 37° C. The reaction was stopped at 4° C., the cells were cytocentrifuged and subjected to May-Grünwald-Giemsa staining agent. The percentage of cells containing black NBT reduction deposits was determined in duplicate, under an optical microscope, after examining 300 cells.

[2] = system: AML blasts; assay: Tyrosine phosphorylation inhibition with genistein, effect on HA-induced differentiation; details: genistein 1 hour, then HA five days
Procedure: (§2) Tyrosine phosphorylation inhibition with genistein: 2.10^5 AML blasts, suspended in 200 μl of RPMI 1640/10% FCS medium, were incubated in the presence of 50 nM/l of genistein (Calbiochem-Novabiochem, San Diego, Calif.) for 1 hour at 37° C., and then in the presence of HA for either one hour (for studies on cytokine transcript expression), or five days (for studies on differentiation).

[3] = system: AML blasts; assay: Trypan blue exclusion test; details: genistein then HA
Procedure: as §2

[4] = system: AML blasts; assay: AML blast differentiation induced by HA or anti-CD44 mAbs (NBT, CD14/CD15, cytology criteria)
Source text: Leukaemic peripheral blood or bone marrow samples were taken at the time of diagnosis, after informed consent, from 36 patients suffering from acute myeloid leukaemia (AML). The diagnosis of the disease and its classification comply with French-American-British (FAB) classification criteria.
Fresh or frozen AML cells were enriched by centrifugation according to the density gradient in the presence of Ficoll, and washed in RPMI 1640 medium containing 10% foetal calf serum (FCS). The frozen cells were thawed at ambient temperature in RPMI 1640 medium containing 50% FCS, and then washed twice in RPMI medium supplemented with 10% FCS. B and T lymphocytes were eliminated from all the samples, along with monocytes for the AML1/2 and AML3 samples. This elimination was performed by specific immunoadsorption of Dynabeads beads (Dynal, Oslo, Norway) coated with monoclonal antibodies directed against the specific surface antigens CD2 and CD19 (lymphocytes) and CD14 (monocytes), according to the manufacturer's instructions. In this way, cell suspensions containing more than 95% AML blasts were obtained.
as §1
Differentiation was detected by analysing 3 criteria: 1) the ability to produce an oxidation-reduction reaction in response to a phorbol ester: this oxidation-reduction reaction is detected with nitroblue tetrazolium NBT reduction, 2) the expression of specific antibodies for differentiation (specific CD14 for monocytes, and specific CD15 for granulocytes), and 3) specific cytological modifications. All these criteria are specific to normal differentiate granulocyte or monocyte cells.

[5] = system: AML blasts; assay: Flow cytometry analysis of CD14 and CD15 expression
Procedure: as §1
Flow cytometry analysis of CD14 and CD15 expression: the AML blasts were suspended at a rate of 10^5 blasts/ml of RPMI 1640 medium containing 0.02% bovine serum albumin and 0.02% […] NaN3, and were then incubated at 4° C. for 30 minutes in the presence of mAbs conjugated with fluorescein isothiocyanate (FITC), and directed against CD14 (5 μg/ml IgG2b, Coulter Immunology, Hialeah, Fla.) or directed against CD15 (1 μg/ml IgM, Becton Dickinson, San José, Calif.). The mAbs were used at saturation concentrations. The murine IgM and IgG2b conjugated with FITC were obtained from Coulter-Immunotech (Coulter-Immunotech Inc., Westbrook, Me.), and were used at a 1:50 dilution. The bonding of the mAbs directed against CD14 and CD15 was quantified by measuring, by flow cytometry, the cell fluorescence in relation to that of cells labelled with the IgG-FITC. The measurement was made using a FACSvantage (Becton Dickinson) equipped with an INNOVA70-4 argon ion laser (Coherent Radiation, Palo Alto, Calif.) set at 488 nm and operating at 500 mW. The flow cytometer was calibrated using fluorescent beads (Becton Dickinson). This measurement was made on 3000 cells.

[6] = system: AML blasts; assay: Cytological study (May-Grünwald-Giemsa staining)
Procedure: as §1
The cell smears, prepared in triplicate, were stained by May-Grünwald-Giemsa staining and their cytology was examined under an optical microscope.

[7] = system: intracellular tyrosine phosphorylations in AML blasts; assay: Protein phosphorylation analysis on tyrosine residue; details: AML5 blasts, 6D12-FITC flow cytometry
Procedure: Protein phosphorylation induction on tyrosine residue: HA-12 (50 μg/ml) was added at the time t=0 to 2.10^5 AML blasts suspended, at ambient temperature, in 200 μl of RPMI 1640 medium containing 10% FCS. At t=1 min, 5 min, 15 min and 30 min, 200 μl of Permeafix Ortho (Coulter-Immunotech Inc., Westbrook, Me.) was added to stop the phosphorylations and permeabilise the cells. After 40 minutes of incubation at ambient temperature, and three washes in PBS, the phosphorylated proteins on the tyrosine residue were labelled specifically with 6D12 mAb (used at 2 μg/ml conjugated with FITC, and the labelling intensity was measured by flow cytometry with reference to the isotype control (cells labelled with IgG1 conjugated with FITC), as described above.

[8] = system: M-CSF transcripts; assay: RT-PCR cytokine transcript expression study; details: out of 3 cases, 1 hour after HA treatment
Procedure: RT-PCR cytokine transcript expression study: the total RNA was extracted from 5.10^5 cells using Trizol reagent (Life Technologies, Cergy Pontoise, France), followed by a phenolchloroform extraction and isopropanol precipitation. One microgram of total RNA heated at 70° C. for 10 minutes was used as a matrix for the synthesis of the first strand of complementary DNA (cDNA), by adding reverse transcriptase and random hexamers (Life Technologies). The transcript of the glyceraldehyde phosphodehydrogenase (GADPH) housekeeping gene was used as an internal marker for the PCR reaction (0.24 kb amplification product). Equilibrated quantities of cDNA were used for the PCR amplification of the cytokine transcripts, the primers used for PCR were as follows: […]
The PCR protocol consisted of 30 cycles of 94° C. for 1 minute, 58° C. for 1 minute and 72° C. for 1 minutes, using a thermocycler (Perkin Elmercetus, Norwalk, Conn.) For each experiment, two negative controls were subject to all the steps.

[9] = Total number, 35 cases analysed

CC1=C(/C=C/C(C)=C/C=C/C(C)=C/C(=O)O)C(C)(C)CCC1 [RA, all-transretinoic acid, reference compound]
% NBT^+ cells (extreme values) ([1]; M3 (AML3) blasts): (RA: 47-90) %

O=c1c(-c2ccc(O)cc2)coc2cc(O)cc(O)c12 [genistein]
effect on AML3 and AML5 differentiation induced by CD44 (HA treatment) [2]: inhibits this differentiation
cell viability [3]: greater than 95%

hyaluronic acid [HA]
Number of cases of differentiation ([4]; AML1/2, 7 cases analysed, 20 μg/ml HA, 5 days): 5/7 and 5
Number of cases of differentiation ([4]; AML3, 16 cases analysed, 20 μg/ml HA, 5 days): 12/16 and 12
Number of cases of differentiation ([4]; AML4, 4 cases analysed, 20 μg/ml HA, 5 days): 3/4 and 3
Number of cases of differentiation ([4]; AML5, 8 cases analysed, 20 μg/ml HA, 5 days): 6/8 and 6
Number of cases of differentiation [4, 9]: 26
Number of cases of differentiation, as % of cases analysed [4, 9]: 74%
cases of AML in which it was not possible to induce differentiation ([4]; all AML patients (36)): 9/36
% NBT^+ cells, median value ([1]; AML1/2, 5 out of 7 cases): 22%
% NBT^+ cells in the cases as high as with all-transretinoic acid ([1]; AML3, 6 of the 12 responding cases): over 50%
% NBT^+ cells, median value ([1]; AML3, 12 out of 16 cases): 42%
% NBT^+ cells, median value ([1]; AML4): 55%
median % NBT^+ cells relative to controls ([1]; AML4): 3 times
% NBT^+ cells, median value ([1]; AML5, 6 out of 8 cases): 52%
% NBT^+ cells (extreme values) ([1]; M3 (AML3) blasts): 20%-80%
% NBT^+ cells (extreme values) ([1]; M4 (AML4) blasts): 43%-90%
% NBT^+ cells (extreme values) ([1]; M5 (AML5) blasts): 32%-70%
factor by which MFI values (CD14, CD15) multiplied ([5]; AML1/2): around 2
cases in which expression of both CD14 and CD15 increased ([5]; AML1/2, of the 8 cases): 6
increase of CD15 MFI values ([5]; AML3): approximately 3 fold
cases in which maturation was as marked as after all-transretinoic acid ([5]; AML3, of the 12 cases): 8
cases in which maturation was as marked as after all-transretinoic acid, % ([5]; AML3, of the 12 cases): 66%
number of samples in which the % of CD15^+ cells increased ([5]; AML3, out of 16 samples): 12
factor by which % of CD14 and CD15 positive cells multiplied ([5]; AML4): 2
factor by which MFI values (CD14, CD15) multiplied ([5]; AML4): 3
dose up to which differentiation intensity (CD14 MFI) is related to the dose ([5]; AML5 blasts, HA-12 (FIG. 3A)): up to 15 μg/ml
% CD15+ cells (extreme values) ([5]; M1/M2 (AML1/2) blasts): 22-100%
% CD15+ cells (extreme values) ([5]; M3 (AML3) blasts): 42-90%
% CD15^− cells median values ([5]; M3 (AML3) blasts): 78%
CD14 MFI value ([5]; one AML5 sample with CD14 in negative controls (102 in the negative controls)): up to 340 arbitrary units
cytological change after treatment ([6]; AML1/2 blasts): No cytological change was observed
cytological characteristics after treatment ([6]; AML3 blasts, 5 days): a segmented nucleus, a low nucleo-cytoplasmic ratio, rare nucleoles, some azurophilic granulations
cytological characteristics after treatment ([6]; AML5 blasts): a decrease in the nucleus/cytoplasm ratio, a decrease in the number of nucleoles, chromatin condensation, and irregular cytoplasmic contours
induction of intracellular tyrosine phosphorylations [7]: already induced after one minute of treatment
cases with M-CSF transcripts detected ([8]; M1/M2 AML): 1
cases with M-CSF transcript detected ([8]; M5 AML): 1
